Results published in US12037302B1, “Compound for treatment of bacterial infections of different etiology in humans” (priority 2021, dated 2024).

What was measured:
Escherichia coli O157:H7 = assay: Comparative in vitro zone diameter test on Müler-Hinton-Agar; format: cell-based; conditions: amount used: novel compound 0.05 mL, Cephalosporin 0.1 mL, Ampicillin 0.2 mL
From the text: (§1) Here are the findings of the comparative examination of selected pathogens against the novel compound and the antibiotics Cephalosporin and Ampicillin:
(§2) Evaluation of the results by zone diameter: • 0 mm to 4 mm: resistant: R • 5 mm to 9 mm: moderately sensitive: MS • 10 mm to 15 mm: sensitive: S • 16 mm to 20 mm: very sensitive: VS • 21 mm and more: extremely sensitive: ES

Listeria monocytogenes = assay: as above; format: cell-based; conditions: amount used: novel compound 0.05 mL, Cephalosporin 0.1 mL, Ampicillin 0.2 mL
From the text: as §1, §2

[1] = tested on: Salmonella typhimurium DT104; assay: as above; format: cell-based; conditions: amount used: novel compound 0.05 mL, Cephalosporin 0.1 mL, Ampicillin 0.2 mL
From the text: as §1, §2

Staphylococcus aureus = assay: as above; format: cell-based; conditions: amount used: novel compound 0.05 mL, Cephalosporin 0.1 mL, Ampicillin 0.2 mL
From the text: as §1, §2

Streptococcus pneumoniae = assay: as above; format: cell-based; conditions: amount used: novel compound 0.05 mL, Cephalosporin 0.1 mL, Ampicillin 0.2 mL
From the text: as §1, §2

Streptococcus pyogenes = assay: as above; format: cell-based; conditions: amount used: novel compound 0.05 mL, Cephalosporin 0.1 mL, Ampicillin 0.2 mL
From the text: as §1, §2

Streptococcus uberis = assay: as above; format: cell-based; conditions: amount used: novel compound 0.05 mL, Cephalosporin 0.1 mL, Ampicillin 0.2 mL
From the text: as §1, §2

mice [2] = assay: Acute toxicity LD50, peroral application (p.o.), mice; format: in vivo
From the text: (§3) Both mice and rats were specially selected for the testing of the toxicity of the compounds, medicine, and chemicals. […] Groups of one hundred (100) lab mice and rats of both genders were placed into glass compartments. They were regularly consuming food manufactured for these lab animals. Water consumption was always available.
(§4) The peroral application (p.o.) acute toxicity LD50 testing was done using the standard procedure: application p.o. with the special lab pipette easy to administer liquid product: orally to the lab animals.
Breathing and cardiac functions were regular, function of thorax was regular and without visual changes. Discomfort symptoms were noticed after the applications, disappeared after 1-3 min, diverse from mouse to mouse.

rats [3] = assay: Acute toxicity LD50, peroral application (p.o.), rats; format: in vivo
From the text: as §3, §4
Breathing and cardiac functions were regular, function of thorax was regular and without visual changes. Discomfort symptoms noticed after the applications, disappeared after 1-3 min, diverse from rat to rat.

mice [4] = assay: Acute toxicity LD50, intraperitoneal (i.p.) injection, mice; format: in vivo
From the text: as §3
(§5) Intraperitoneal testing of the compound LD50 i.e. by pharmaceutical lab needle and syringe, designed for the easy application to the lab animals intraperitoneally.
Breathing and cardiac functions were regular, function of thorax was regular and without visual changes. Discomfort symptoms noticed after the applications, disappeared after 3-5 min, diverse from mouse to mouse.

rats [5] = assay: Acute toxicity LD50, intraperitoneal (i.p.) injection, rats; format: in vivo
From the text: as §3, §5
Breathing and cardiac functions were regular, function of thorax was regular and without visual changes. Discomfort symptoms noticed after the applications, disappeared after 5-6 min, diverse from rat to rat.

Structure (SMILES) | R (evaluation by zone diameter) (Escherichia coli O157:H7) | zone diameter (Escherichia coli O157:H7) [mm] | R (evaluation by zone diameter) (Listeria monocytogenes) | zone diameter (Listeria monocytogenes) [mm] | R (evaluation by zone diameter) [1] | zone diameter [1] [mm] | R (evaluation by zone diameter) (Staphylococcus aureus) | zone diameter (Staphylococcus aureus) [mm] | R (evaluation by zone diameter) (Streptococcus pneumoniae) | zone diameter (Streptococcus pneumoniae) [mm] | R (evaluation by zone diameter) (Streptococcus pyogenes) | zone diameter (Streptococcus pyogenes) [mm] | R (evaluation by zone diameter) (Streptococcus uberis) | zone diameter (Streptococcus uberis) [mm] | also measured
CC1(C)S[C@@H]2[C@H](NC(=O)[C@H](N)c3ccccc3)C(=O)N2[C@H]1C(=O)O [Ampicilin, Ampicillin] | MS (5 mm to 9 mm: moderately sensitive: MS) | 7 | MS (5 mm to 9 mm: moderately sensitive: MS) | 7 | MS (5 mm to 9 mm: moderately sensitive: MS) | 6 | R (0 mm to 4 mm: resistant: R) | 0 | R (0 mm to 4 mm: resistant: R) | 0 | R (0 mm to 4 mm: resistant: R) | 3 | R (0 mm to 4 mm: resistant: R) | 0 | 
CCN(CC)CC(=O)Nc1c(C)cccc1C.Cc1cc([N+](=O)[O-])c(C(C)C)c([N+](=O)[O-])c1O [Novel Compound, 2,4-dinitro-5-isopropyl-2-methylphenoxy-N-(2,6-dimethylphenylium)-N2,N2-diethylglycinamide] | ES (21 mm and more: extremely sensitive: ES) | 24 | ES (21 mm and more: extremely sensitive: ES) | 33 | ES (21 mm and more: extremely sensitive: ES) | 25 | ES (21 mm and more: extremely sensitive: ES) | 27 | ES (21 mm and more: extremely sensitive: ES) | 31 | ES (21 mm and more: extremely sensitive: ES) | 29 | ES (21 mm and more: extremely sensitive: ES) | 32 | toxicity conclusion (mice [2]; orally (p.o.), applied doses): low toxic; oral LD50 (mice [2]; p.o.): over 2,000 μL/kg; animals that changed their behavior and demonstrated light discomfort, running, anxiety (mice [2]; p.o., 2,000 μL/kg): 23 mice out of one hundred (100); time after which discomfort symptoms disappeared (mice [2]; p.o., 2,000 μL/kg): 1 to 3 min; lethality during the test (mice [2]; p.o., doses up to 2,000 μL/kg): No mouse has ended lethally; toxicity conclusion (rats [3]; orally (p.o.), applied doses): low toxic; oral LD50 (rats [3]; p.o.): over 2,250 μL/kg; animals that changed their behavior and demonstrated light discomfort, running, anxiety (rats [3]; p.o., 2,250 μL/kg): 37 rats out of one hundred (100); time after which discomfort symptoms disappeared (rats [3]; p.o., 2,250 μL/kg): 1 to 3 min; lethality during the test (rats [3]; p.o., doses up to 2,250 μL/kg): No rat has ended lethally; Intraperitoneal LD50 (mice [4]; i.p.): over 1,550 μL/kg; animals that changed their behavior and demonstrated discomfort, running, anxiety (mice [4]; i.p., 1,550 μL/kg): 21 mice out of one hundred (100); time after which discomfort symptoms disappeared (mice [4]; i.p., 1,550 μL/kg): 3 to 5 min; toxicity conclusion (mice [4]; i.p., applied doses): low toxic; lethality during the test (mice [4]; i.p., doses up to 1,550 μL/kg): No mouse has ended lethally; Intraperitoneal LD50 (rats [5]; i.p.): over 1,750 ML/kg; animals that changed their behavior and demonstrated discomfort, running, anxiety (rats [5]; i.p., 1,750 μL/kg): 29 rats out of one hundred (100); time after which discomfort symptoms disappeared (rats [5]; i.p., 1,750 μL/kg): 5 to 6 min; toxicity conclusion (rats [5]; i.p., applied doses): low toxic; lethality during the test (rats [5]; i.p., doses up to 1,750 μL/kg): No rat has passed lethally
